The source of these data is PMC7433010, “Exploration of multi‐target effects of 3‐benzoyl‐5‐hydroxychromen‐2‐one in Alzheimer’s disease cell and mouse models” (Aging Cell, 2020).

This experiment concerns pCREB. The experiment can be described thus: Western blot of pCREB in hippocampus of STZ‐treated 3 × Tg‐AD mice. It counts as in vivo, mouse. The settings on record: STZ 68%, – STZ 100%. The protocol: In addition, isolated hippocampal and cortex tissues from transgenic mice (as described in Animal studies) were homogenized and extracted proteins (10 µg) were separated and blotted. After being blocked, the membranes were probed with antibody against mouse NRF2 (1:500; Sigma-Aldrich), CREB (1:500; Millipore), pCREB (S133) (1:1000; Millipore), or GAPDH (1:1000; MDBio), and the immune complexes detected as described above.
Mice harboring APPSwe, PS1M146V, and […] transgenes (3×Tg-AD) (Oddo et al., 2003) were purchased from the Jackson Laboratory (004807; Bar Harbor, ME, USA). Six-month-old male homozygous 3×Tg-AD mice were group housed at 20–25°C and 60% relative humidity under a daily 12-h light/12-h dark cycle, with assess to food and water ad libitum. Mice were randomly divided into 3 groups: – streptozocin (STZ), STZ, and STZ/LM-031 (n = 10 per group). STZ-induced hyperglycemia was used to accelerate the development of AD phenotype (Chen et al., 2014). Briefly, the mice were fasted for 12 h each day prior to intraperitoneal (i.p.) injection of STZ ([…]; Sigma-Aldrich) or vehicle (0.1 M sodium citrate pH4.5) for 4 times (days 2, 3, 9, and 10) (Chen et al., 2019). Mouse body weight was measured and blood glucose level was measured on days 1, 8, 15, 22, and 29 using a blood glucose meter (Bioland Technology, Taipei, Taiwan). […]

Turning to `O=C(c1ccccc1)c1cc2c(O)cccc2oc1=O` [LM‐031, 3‐benzoyl‐5‐hydroxychromen‐2‐one], the “pCREB level in hippocampus” value is 110%.
